Data on twelve molecules can be found in PubChem BioAssay (NCI).

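Growth conditions: 96-well plates. Treatment: test compound, 48 hours, 5 concentrations. Analysis: linear interpolation between bracketing concentrations; unreached endpoints set to highest concentration. TGI denotes the concentration required for complete inhibition of growth.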

Among the test systems are UACC-62 melanoma; UO-31 renal; MDA-MB-435; HOP-92 NSCLC; T-47D breast; IGROV1 ovarian; LOX IMVI melanoma; NCI-H226 lung; OVCAR-5 ovarian; MDA-N; PC-3 prostate; EKVX NSCLC; SK-OV-3 ovarian.
Assay in all cases: NCI tumour cell line growth inhibition, 48 h

In the case of `N#Cc1sc2c(c1O)c(=O)n(-c1ccccc1)c(=S)n2-c1ccccc1`, the TGI with UACC-62 melanoma, with UO-31 renal, in the test with MDA-MB-435, with HOP-92 NSCLC, in the test on T-47D breast and with IGROV1 ovarian was more than 100 µM each time. Besides, the TGI in the test on LOX IMVI melanoma, in the test with NCI-H226 lung, with OVCAR-5 ovarian and in the test with MDA-N was more than 100 µM each time.
As to `COCCOC(=O)C(C)=[N+]=[N-]`, the TGI with PC-3 prostate, in the test on UACC-62 melanoma, in the test on UO-31 renal, with EKVX NSCLC, with MDA-MB-435 and in the test on T-47D breast was more than 100 µM throughout. Moreover, the TGI in the test with IGROV1 ovarian, in the test on LOX IMVI melanoma, in the test on NCI-H226 lung, in the test with OVCAR-5 ovarian and in the test with MDA-N was more than 100 µM throughout.
Turning to `CC(=O)c1sc(=N)n(-c2c(C)cccc2C)c1C`, the TGI with PC-3 prostate, in the test with SK-OV-3 ovarian, in the test on UACC-62 melanoma, in the test on UO-31 renal, with EKVX NSCLC and with MDA-MB-435 was more than 100 µM each time. For the same molecule, the TGI in the test on T-47D breast, in the test on IGROV1 ovarian, in the test with LOX IMVI melanoma, with NCI-H226 lung, with OVCAR-5 ovarian and in the test with MDA-N was more than 100 µM throughout.
Take `O=C(NNC(=O)c1ccccc1O)c1ccc(O)cc1`: the TGI with PC-3 prostate, in the test with SK-OV-3 ovarian, with UACC-62 melanoma, in the test with UO-31 renal, in the test on EKVX NSCLC and in the test with MDA-MB-435 was more than 100 µM throughout. The TGI in the test with T-47D breast, in the test with IGROV1 ovarian, with LOX IMVI melanoma, in the test with NCI-H226 lung, with OVCAR-5 ovarian and with MDA-N was more than 100 µM each time.
In the case of `OC(C/C=N/Nc1ccccc1)(C(F)(F)Cl)C(F)(F)Cl`, the TGI with PC-3 prostate, in the test on SK-OV-3 ovarian, with UACC-62 melanoma, in the test on UO-31 renal, in the test on EKVX NSCLC and in the test on MDA-MB-435 was more than 10 µM throughout. Besides, the TGI in the test with HOP-92 NSCLC, in the test on T-47D breast, in the test with IGROV1 ovarian, in the test with LOX IMVI melanoma, in the test on NCI-H226 lung and in the test on MDA-N was more than 10 µM each time.
On to `CC(C)(C)C1CCC2c3c([nH]c4ccccc34)C3C(=O)N(c4ccc5c(c4)C(=O)c4ccccc4C5=O)C(=O)C3C2C1` (configuration not stated), for which the TGI in the test with PC-3 prostate, with SK-OV-3 ovarian, in the test with UACC-62 melanoma, with EKVX NSCLC, with MDA-MB-435 and in the test on T-47D breast was more than 100 µM throughout. The TGI in the test on IGROV1 ovarian, in the test on LOX IMVI melanoma, in the test with NCI-H226 lung, in the test with OVCAR-5 ovarian and with MDA-N was more than 100 µM in each case.
For the molecule `Cc1cc2c(cc1Cl)SC(NNc1ccc([N+](=O)[O-])cc1)=NS2(=O)=O`, the TGI in the test with PC-3 prostate, with SK-OV-3 ovarian, with UACC-62 melanoma, with UO-31 renal, with EKVX NSCLC and in the test with MDA-MB-435 was more than 10 µM each time. Also, the TGI in the test on T-47D breast, in the test with IGROV1 ovarian, in the test on LOX IMVI melanoma, in the test on NCI-H226 lung, in the test with OVCAR-5 ovarian and with MDA-N was more than 10 µM in each case.
Regarding `CCc1cc2c(oc3cc(C)ccc32)c(=O)n1C`, the TGI with PC-3 prostate, in the test with SK-OV-3 ovarian, with UO-31 renal, in the test with EKVX NSCLC, with MDA-MB-435 and in the test on HOP-92 NSCLC was more than 10 µM in each case. For the same molecule, the TGI in the test with T-47D breast, with IGROV1 ovarian, in the test on LOX IMVI melanoma, in the test on NCI-H226 lung, in the test on OVCAR-5 ovarian and with MDA-N was more than 10 µM each time.
For `CC1=C(C(=O)OC(C)C)C(c2ccccc2C(F)(F)F)C(C(=O)OC(CO[N+](=O)[O-])CO[N+](=O)[O-])=C(C)N1` (configuration not stated), the TGI in the test on PC-3 prostate amounted to 12.2 µM; in the test on SK-OV-3 ovarian, 38.9 µM; in the test on UACC-62 melanoma it was 20.1 µM; in the test with UO-31 renal it was 4.37 µM; in the test with EKVX NSCLC it was 70.2 µM; with MDA-MB-435, 27.4 µM. Besides, the TGI in the test with T-47D breast was more than 100 µM; with IGROV1 ovarian, 25.9 µM; in the test with LOX IMVI melanoma it was 21.1 µM; in the test on NCI-H226 lung it was 38.5 µM; in the test with OVCAR-5 ovarian it was 46.8 µM; with MDA-N it was 21.9 µM.
On to `CC1=NN(C(=O)CC(=O)Nc2cccc(Cl)c2)C(=O)C1N=Nc1ccc(C(=O)O)cc1` (configuration not stated), for which the TGI with PC-3 prostate, in the test on UACC-62 melanoma, in the test on UO-31 renal, with EKVX NSCLC, in the test with MDA-MB-435 and in the test on HOP-92 NSCLC was more than 100 µM in each case. The TGI in the test on T-47D breast, in the test with IGROV1 ovarian, with LOX IMVI melanoma, in the test with OVCAR-5 ovarian and in the test with MDA-N was more than 100 µM in each case.
Turning to `O=C(/C=C(\O)c1ccccc1)c1cc(-c2ccccc2)n(-c2ccccc2)n1`, the TGI with PC-3 prostate is more than 100 µM; with SK-OV-3 ovarian, more than 100 µM; in the test on UACC-62 melanoma, 13.4 µM; in the test on UO-31 renal, 39.9 µM; in the test with EKVX NSCLC, more than 100 µM; in the test on MDA-MB-435, more than 100 µM. Moreover, the TGI in the test with T-47D breast was 37.9 µM; in the test on IGROV1 ovarian, 79.9 µM; in the test on LOX IMVI melanoma it was more than 100 µM; with NCI-H226 lung, 25.2 µM; with OVCAR-5 ovarian it was more than 100 µM; with MDA-N, more than 100 µM.
Take `COc1ccc(NC2CC(C)N(C(=O)c3ccccc3)O2)cc1` (configuration not stated): the TGI with PC-3 prostate, in the test with SK-OV-3 ovarian, with UO-31 renal, in the test on EKVX NSCLC, with MDA-MB-435 and with T-47D breast was more than 10 µM throughout. Further, the TGI in the test on IGROV1 ovarian, in the test with LOX IMVI melanoma, in the test with OVCAR-5 ovarian and with MDA-N was more than 10 µM each time.
